Experimental data from patent publication US20110040086A1, “Novel Beta-Lactam Antibiotics, Methods for Their Production, and Their Use” (DRITTE PATENTPORTFOLIO BETEILIGUNGSGESELLSCHAFT MB, priority 2007, published 2011).

Tests used:
[1] = tested on: Enterococcus faecalis 769; experiment: agar diffusion test (Test System II, multi-resistant germs); format: cell-based; parameters: key: r = resistant (no detectable zone of inhibition)
Procedure, shortened: (§1)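 Stepped amounts of each substance (10, 50, 100 μg) were applied to carrier discs from methanol or water according to solubility. These were laid on Müller-Hinton agar II inoculated at McFarland 0.5, and zones of inhibition were read following overnight incubation (18-20 h) at 37 °C.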

[2] = tested on: Staphylococcus aureus 315; experiment: as above; format: cell-based; parameters: key: r = resistant (no detectable zone of inhibition)
Procedure, shortened: as §1

[3] = tested on: B. subtilis AWD 166; experiment: agar diffusion test (antimicrobial effect); format: cell-based, Bacillus subtilis
Method: (§2) The seeding of bacteria in agar is selected so that, dense, but not confluent individual colonies develop after the incubation.
(§3) The inoculated nutrient agar is set in sterile Petri dishes and left standing for a few minutes for drying.
(§4) The test substances are deposited in stepped quantities (10 μg, 50 μg, 100 μg) onto active ingredient carriers (sensi-discs). For this purpose, the test substances are dissolved in methanol or A. dest. according to their solubility. Each inoculated plate is fitted with 3 test sheets.
(§5) After a 20-hour incubation time at 37° C., the zones of inhibition around the individual test sheets could be measured. The diameter of the zone of inhibition is specified in mm.

[4] = tested on: Escherichia coli SBUG 1135; experiment: agar diffusion test (Test System 1, antimicrobial effect); format: cell-based
Method: (§6) Test System 1 (Antimicrobial Effect)
(§7) The test germs Escherichia coli SBUG 1135 and Bacillus megaterium SBUG 1152 are drawn overnight (17 hours at 37° C.) in 5 ml nutrient medium II. The incubation is performed in a shaking incubator (INFORS AG CH 4103, Bottmingen, Switzerland) at a shaking frequency of 180 rpm.
(§8) After 17 h incubation time, Escherichia coli has reached a cell density of ca. 2.4×10^10 cells/ml and Bacillus megaterium a cell density of ca. 2.1×10^8 cells/ml.
as §2
Escherichia coli: the ÜN is diluted 1:100 with physiological saline solution, of which 0.1 ml is converted into 10 ml nutrient agar. That corresponds to a cell count of 10^6.
as §3, §4, §5

[5] = tested on: S. epidermidis 125; experiment: agar diffusion test (Test System II, multi-resistant germs); format: cell-based, Staphylococcus epidermidis
Procedure, shortened: as §1

[6] = tested on: S. aureus 38418; experiment: as above; format: cell-based, Staphylococcus aureus
Procedure, shortened: as §1

[7] = tested on: S. aureus ATCC 6538; experiment: as above; format: cell-based, Staphylococcus aureus
Procedure, shortened: as §1

[8] = tested on: E. faecalis 945; experiment: as above; format: cell-based, Enterococcus faecalis; parameters: key: r = resistant (no detectable zone of inhibition)
Method: as §4
Test System II (Effect Against Multi-Resistant Germs)
For this purpose, bacteria is cultivated on Müller-Hinton-Agar II plates.
With 1-1.5 ml physiological saline solution, a bacteria suspension of McFarland 0.5 (corresponds to a bacteria density of 150×10^6 germs) is produced. Then, with a sterile glass rod, a small drop of bacteria suspension is placed on the Müller-Hinton-Agar plate and coated in three layers (vertical, horizontal, and transverse). Thereafter, the sensi-discs with the novel semi-synthetic test substances are placed on top. The fitted plates are incubated for 18-20 hours at 37° C. After incubation, the diameters of the zones of inhibition are read as a measure for the antimicrobial activity of the novel semi-synthetic test substances.

[9] = tested on: Bacillus megaterium SBUG 1152; experiment: agar diffusion test (Test System 1, antimicrobial effect); format: cell-based
Method: as §6, §7, §8, §2
Bacillus megaterium: 0.1 ml of non-diluted overnight culture (ÜN) in 10 ml nutrient agar corresponds to a cell count of 10^6.
as §3, §4, §5

[10] = tested on: S. aureus 526; experiment: agar diffusion test (Test System II, multi-resistant germs); format: cell-based, Staphylococcus aureus; parameters: key: r = resistant (no detectable zone of inhibition)
Procedure, shortened: as §1

[11] = tested on: S. aureus 33490; experiment: as above; format: cell-based, Staphylococcus aureus; parameters: key: r = resistant (no detectable zone of inhibition)
Procedure, shortened: as §1

[12] = tested on: S. aureus 520; experiment: as above; format: cell-based, Staphylococcus aureus; parameters: key: r = resistant (no detectable zone of inhibition)
Procedure, shortened: as §1

[13] = tested on: S. aureus 36881; experiment: as above; format: cell-based, Staphylococcus aureus; parameters: key: r = resistant (no detectable zone of inhibition)
Procedure, shortened: as §1

[14] = tested on: S. aureus 34289; experiment: as above; format: cell-based, Staphylococcus aureus; parameters: key: r = resistant (no detectable zone of inhibition)
Procedure, shortened: as §1

[15] = tested on: S. aureus North Germany strain; experiment: as above; format: cell-based, Staphylococcus aureus; parameters: key: r = resistant (no detectable zone of inhibition)
Procedure, shortened: as §1

[16] = tested on: S. aureus 39105; experiment: as above; format: cell-based, Staphylococcus aureus; parameters: key: r = resistant (no detectable zone of inhibition)
Procedure, shortened: as §1

[17] = logP value by HPLC according to Donovan et al.; details: HPLC with methanol/0.1% phosphoric acid gradient, pH 2
Method: • Operating temperature 18-24° C. • Flow 1.5 mL/min • Linear gradient (methanol/0.1% phosphoric acid pH 2) from 10% to 100% methanol in 9.4 min, equilibrium time between 2 runs 6 min
ca. 0.5 mg of analyte is added to 0.5 ml of a standard solution (440 mg methyl phenyl sulfonate and 380 μl toluene in 150 mL methanol). 2 μl of this sample solution is injected.
Because the distribution coefficients of the two standards running in each test are known, the distribution coefficient of the analytes can be determined from the relationships of the analyte/standard retention times.

[18] = tested on: S. epidermidis 563; experiment: agar diffusion test (Test System II, multi-resistant germs); format: cell-based, Staphylococcus epidermidis
Procedure, shortened: as §1

[19] = tested on: S. epidermidis 1068; experiment: as above; format: cell-based, Staphylococcus epidermidis
Procedure, shortened: as §1

[20] = tested on: S. epidermidis 1071; experiment: as above; format: cell-based, Staphylococcus epidermidis
Procedure, shortened: as §1

[21] = tested on: S. epidermidis 847; experiment: as above; format: cell-based, Staphylococcus epidermidis
Procedure, shortened: as §1

Question: With `N[C@@H](C(=O)N[C@@H]1C(=O)N2C(C(=O)O)=C(Cl)CS[C@H]12)c1ccccc1` [2c, Cefaclor, reference compound] as the molecule, how does the “Diameter of zone of inhibition” value ([1]; Quantity n 0.019) read?
Answer: r^2

Question: And the “Diameter of zone of inhibition” value ([1]; Quantity n 0.1)?
Answer: 8 mm

Question: What about the “Diameter of zone of inhibition” value ([1]; Quantity n 0.19) of the same molecule?
Answer: 14 mm

Question: And the “Diameter of zone of inhibition” value ([2]; Quantity n 0.019)?
Answer: r

Question: What about the “Diameter of zone of inhibition” value ([2]; Quantity n 0.1) of the same molecule?
Answer: 10 mm

Question: What about the “Diameter of zone of inhibition” value ([2]; Quantity n 0.19) of the same molecule?
Answer: 12 mm

Question: And the “Diameter of zone of inhibition” value ([3]; Quantity n 0.019)?
Answer: 36 mm

Question: And the “Diameter of zone of inhibition” value ([3]; Quantity n 0.1)?
Answer: 38 mm

Question: And the “Diameter of zone of inhibition” value ([3]; Quantity n 0.19)?
Answer: 40 mm

Question: What about the “Diameter of zone of inhibition” value ([4]; Quantity n 0.019) of the same molecule?
Answer: 24 mm

Question: And the “Diameter of zone of inhibition” value ([4]; Quantity n 0.1)?
Answer: 30 mm

Question: What about the “Diameter of zone of inhibition” value ([4]; Quantity n 0.19) of the same molecule?
Answer: 32 mm

Question: What about the “Diameter of zone of inhibition” value ([5]; Quantity n 0.019) of the same molecule?
Answer: 26 mm

Question: And the “Diameter of zone of inhibition” value ([5]; Quantity n 0.1)?
Answer: 34 mm

Question: What about the “Diameter of zone of inhibition” value ([5]; Quantity n 0.19) of the same molecule?
Answer: 36 mm

Question: What about the “Diameter of zone of inhibition” value ([6]; Quantity n [mol] 0.019) of the same molecule?
Answer: 26 mm

Question: And the “Diameter of zone of inhibition” value ([6]; Quantity n [mol] 0.1)?
Answer: 34 mm

Question: What about the “Diameter of zone of inhibition” value ([6]; Quantity n [mol] 0.19) of the same molecule?
Answer: 38 mm

Question: What about the “Diameter of zone of inhibition” value ([7]; Quantity n 0.019) of the same molecule?
Answer: 30 mm

Question: And the “Diameter of zone of inhibition” value ([7]; Quantity n 0.1)?
Answer: 38 mm

Question: And the “Diameter of zone of inhibition” value ([7]; Quantity n 0.19)?
Answer: 40 mm

Question: And the “Diameter of zone of inhibition” value ([8]; Quantity n 0.019)?
Answer: r

Question: And the “Diameter of zone of inhibition” value ([8]; Quantity n 0.1)?
Answer: 8 mm

Question: And the “Diameter of zone of inhibition” value ([8]; Quantity n 0.19)?
Answer: 12 mm

Question: What about the “Diameter of zone of inhibition” value ([9]; Quantity n 0.019) of the same molecule?
Answer: 36^1 mm

Question: What about the “Diameter of zone of inhibition” value ([9]; Quantity n 0.1) of the same molecule?
Answer: 38 mm

Question: And the “Diameter of zone of inhibition” value ([9]; Quantity n 0.19)?
Answer: 40 mm

Question: And the “Diameter of zone of inhibition” value ([10]; Quantity n 0.019)?
Answer: r

Question: And the “Diameter of zone of inhibition” value ([10]; Quantity n 0.1)?
Answer: 8 mm

Question: And the “Diameter of zone of inhibition” value ([10]; Quantity n 0.19)?
Answer: 12 mm

Question: And the “Diameter of zone of inhibition” value ([11]; Quantity n [μmol] 0.019)?
Answer: 24 mm

Question: And the “Diameter of zone of inhibition” value ([11]; Quantity n [μmol] 0.1)?
Answer: 30 mm

Question: And the “Diameter of zone of inhibition” value ([11]; Quantity n [μmol] 0.19)?
Answer: 32 mm

Question: What about the “Diameter of zone of inhibition” value ([12]; Quantity n [mol] 0.019) of the same molecule?
Answer: r

Question: What about the “Diameter of zone of inhibition” value ([12]; Quantity n [mol] 0.1) of the same molecule?
Answer: 10 mm

Question: What about the “Diameter of zone of inhibition” value ([12]; Quantity n [mol] 0.19) of the same molecule?
Answer: 14 mm

Question: What about the “Diameter of zone of inhibition” value ([13]; Quantity n 0.019) of the same molecule?
Answer: r

Question: What about the “Diameter of zone of inhibition” value ([13]; Quantity n 0.1) of the same molecule?
Answer: 12 mm

Question: And the “Diameter of zone of inhibition” value ([13]; Quantity n 0.19)?
Answer: 18 mm

Question: What about the “Diameter of zone of inhibition” value ([14]; Quantity n [mol] 0.019) of the same molecule?
Answer: r

Question: What about the “Diameter of zone of inhibition” value ([14]; Quantity n [mol] 0.1) of the same molecule?
Answer: r

Question: What about the “Diameter of zone of inhibition” value ([14]; Quantity n [mol] 0.19) of the same molecule?
Answer: 10 mm

Question: And the “Diameter of zone of inhibition” value ([15]; Quantity n 0.019)?
Answer: r

Question: And the “Diameter of zone of inhibition” value ([15]; Quantity n 0.1)?
Answer: 10 mm

Question: And the “Diameter of zone of inhibition” value ([15]; Quantity n 0.19)?
Answer: 14 mm

Question: What about the “Diameter of zone of inhibition” value ([16]; Quantity n 0.019) of the same molecule?
Answer: 22 mm

Question: And the “Diameter of zone of inhibition” value ([16]; Quantity n 0.1)?
Answer: 24 mm

Question: And the “Diameter of zone of inhibition” value ([16]; Quantity n 0.19)?
Answer: 28 mm

Question: What about the chromatographic logP [17] of the same molecule?
Answer: -3.28

Question: And the “Diameter of zone of inhibition” value ([18]; Quantity n 0.019)?
Answer: 30 mm

Question: What about the “Diameter of zone of inhibition” value ([18]; Quantity n 0.1) of the same molecule?
Answer: 34 mm

Question: And the “Diameter of zone of inhibition” value ([18]; Quantity n 0.19)?
Answer: 36 mm

Question: And the “Diameter of zone of inhibition” value ([19]; Quantity n 0.019)?
Answer: 22 mm

Question: What about the “Diameter of zone of inhibition” value ([19]; Quantity n 0.1) of the same molecule?
Answer: 24 mm

Question: What about the “Diameter of zone of inhibition” value ([19]; Quantity n 0.19) of the same molecule?
Answer: 30 mm

Question: What about the “Diameter of zone of inhibition” value ([20]; Quantity n 0.019) of the same molecule?
Answer: 28 mm

Question: What about the “Diameter of zone of inhibition” value ([20]; Quantity n 0.1) of the same molecule?
Answer: 30 mm

Question: And the “Diameter of zone of inhibition” value ([20]; Quantity n 0.19)?
Answer: 32 mm

Question: And the “Diameter of zone of inhibition” value ([21]; Quantity n [mol] 0.019)?
Answer: 14 mm

Question: What about the “Diameter of zone of inhibition” value ([21]; Quantity n [mol] 0.1) of the same molecule?
Answer: 24 mm

Question: And the “Diameter of zone of inhibition” value ([21]; Quantity n [mol] 0.19)?
Answer: 28 mm
